Laboratory results published in the NIST ThermoML archive (doi:10.1007/s10765-006-0033-6).

Assay: compressibility factor (dimensionless); xn = mol fraction of the nth substance listed
Conditions: Gas, Other PVT measurement

[N-]=[N+]=O [nitrous oxide] + FCF
Conditions | compressibility factor
303.23 K, 131 kPa, x1 = 0.2958 | 0.9882
303.23 K, 133.7 kPa, x1 = 0.3826 | 0.9887
303.23 K, 194.9 kPa, x1 = 0.2958 | 0.9827
303.23 K, 199.1 kPa, x1 = 0.3826 | 0.9838
303.23 K, 213.1 kPa, x1 = 0.7326 | 0.9893
303.23 K, 235.1 kPa, x1 = 0.6589 | 0.9847
303.23 K, 289.2 kPa, x1 = 0.2958 | 0.9746
303.23 K, 295.5 kPa, x1 = 0.3826 | 0.9761
303.23 K, 316.4 kPa, x1 = 0.7326 | 0.9819
303.23 K, 349.2 kPa, x1 = 0.6589 | 0.9776
303.23 K, 356.8 kPa, x1 = 0.448 | 0.9708
303.23 K, 427.1 kPa, x1 = 0.2958 | 0.9622
303.23 K, 436.8 kPa, x1 = 0.3826 | 0.9645
303.23 K, 468.8 kPa, x1 = 0.7326 | 0.9723
303.23 K, 516.7 kPa, x1 = 0.6589 | 0.9669
303.23 K, 526.5 kPa, x1 = 0.448 | 0.9574
303.23 K, 626.7 kPa, x1 = 0.2958 | 0.9437
303.23 K, 641.7 kPa, x1 = 0.3826 | 0.947
303.23 K, 691.2 kPa, x1 = 0.7326 | 0.9582
303.23 K, 760.2 kPa, x1 = 0.6589 | 0.9509
303.23 K, 771.2 kPa, x1 = 0.448 | 0.9375
303.23 K, 910.7 kPa, x1 = 0.2958 | 0.9166
303.23 K, 933.9 kPa, x1 = 0.3826 | 0.9213
303.23 K, 1012.1 kPa, x1 = 0.7326 | 0.9378
303.23 K, 1108.8 kPa, x1 = 0.6589 | 0.927
303.23 K, 1117.6 kPa, x1 = 0.448 | 0.9081
303.23 K, 1303.4 kPa, x1 = 0.2958 | 0.8768
303.23 K, 1340.2 kPa, x1 = 0.3826 | 0.8837
303.23 K, 1465.6 kPa, x1 = 0.7326 | 0.9077
303.23 K, 1593.4 kPa, x1 = 0.448 | 0.8653
303.23 K, 1596.2 kPa, x1 = 0.6589 | 0.892
303.23 K, 1822 kPa, x1 = 0.2958 | 0.8193
303.23 K, 1881.5 kPa, x1 = 0.3826 | 0.8292
303.23 K, 2086.1 kPa, x1 = 0.7326 | 0.8636
303.23 K, 2214.2 kPa, x1 = 0.448 | 0.8037
303.23 K, 2252 kPa, x1 = 0.6589 | 0.8412
303.23 K, 2454.7 kPa, x1 = 0.2958 | 0.7378
303.23 K, 2551.4 kPa, x1 = 0.3826 | 0.7516
303.23 K, 2892.7 kPa, x1 = 0.7326 | 0.8004
303.23 K, 2954.5 kPa, x1 = 0.448 | 0.7169
303.23 K, 3079.5 kPa, x1 = 0.6589 | 0.7688
303.23 K, 3848.9 kPa, x1 = 0.7326 | 0.7119
303.23 K, 4005.3 kPa, x1 = 0.6589 | 0.6684
323.44 K, 159 kPa, x1 = 0.5714 | 0.9902
323.44 K, 237 kPa, x1 = 0.5714 | 0.9864
323.44 K, 254.6 kPa, x1 = 0.745 | 0.9868
323.44 K, 352.4 kPa, x1 = 0.5714 | 0.9806
323.44 K, 378.8 kPa, x1 = 0.745 | 0.9812
323.44 K, 522.4 kPa, x1 = 0.5714 | 0.9714
323.44 K, 561.8 kPa, x1 = 0.745 | 0.9727
323.44 K, 770.4 kPa, x1 = 0.5714 | 0.9577
323.44 K, 829.3 kPa, x1 = 0.745 | 0.9598
323.44 K, 1128 kPa, x1 = 0.5714 | 0.9372
323.44 K, 1215.8 kPa, x1 = 0.745 | 0.9406
323.44 K, 1633.3 kPa, x1 = 0.5714 | 0.9071
323.44 K, 1764.2 kPa, x1 = 0.745 | 0.9123
323.44 K, 2325.6 kPa, x1 = 0.5714 | 0.8633
323.44 K, 2519.5 kPa, x1 = 0.745 | 0.8708
323.44 K, 3228.5 kPa, x1 = 0.5714 | 0.8011
323.44 K, 3513.7 kPa, x1 = 0.745 | 0.8117
323.44 K, 4726.6 kPa, x1 = 0.745 | 0.7299
323.45 K, 119.4 kPa, x1 = 0.4108 | 0.9909
323.45 K, 128.6 kPa, x1 = 0.3236 | 0.9894
323.45 K, 141.9 kPa, x1 = 0.2465 | 0.9883
323.45 K, 178 kPa, x1 = 0.4108 | 0.9879
323.45 K, 191.7 kPa, x1 = 0.3236 | 0.986
323.45 K, 211.5 kPa, x1 = 0.2465 | 0.984
323.45 K, 265 kPa, x1 = 0.4108 | 0.9831
323.45 K, 285.1 kPa, x1 = 0.3236 | 0.9802
323.45 K, 314.1 kPa, x1 = 0.2465 | 0.9771
323.45 K, 393.4 kPa, x1 = 0.4108 | 0.9754
323.45 K, 422.8 kPa, x1 = 0.3236 | 0.9714
323.45 K, 464.8 kPa, x1 = 0.2465 | 0.9664
323.45 K, 581.5 kPa, x1 = 0.4108 | 0.9636
323.45 K, 623.6 kPa, x1 = 0.3236 | 0.9578
323.45 K, 683.5 kPa, x1 = 0.2465 | 0.9499
323.45 K, 854.1 kPa, x1 = 0.4108 | 0.946
323.45 K, 912.9 kPa, x1 = 0.3236 | 0.9372
323.45 K, 996.3 kPa, x1 = 0.2465 | 0.9254
323.45 K, 1242.3 kPa, x1 = 0.4108 | 0.9198
323.45 K, 1321.6 kPa, x1 = 0.3236 | 0.9069
323.45 K, 1433.4 kPa, x1 = 0.2465 | 0.8899
323.45 K, 1781.4 kPa, x1 = 0.4108 | 0.8816
323.45 K, 1881.4 kPa, x1 = 0.3236 | 0.8629
323.45 K, 2021.2 kPa, x1 = 0.2465 | 0.8388
323.45 K, 2499.7 kPa, x1 = 0.4108 | 0.8269
323.45 K, 2610.3 kPa, x1 = 0.3236 | 0.8003
343.77 K, 139.1 kPa, x1 = 0.2266 | 0.9898
